Test results taken from BindingDB's records for doi:10.1124/jpet.104.081497 (Katholieke Universiteit Leuven, 2005).

Target: T1, Promotilin (Homo sapiens, UniProt P12872)
T1 sequence (P12872 whole entry): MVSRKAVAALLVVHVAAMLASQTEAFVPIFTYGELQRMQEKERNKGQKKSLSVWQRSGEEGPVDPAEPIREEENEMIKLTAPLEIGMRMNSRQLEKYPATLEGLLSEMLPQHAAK

Row | Structure (SMILES) | Ki [nM]
1 | C#CCN(C)C1CC(C)OC(OC2C(C)C(OC3CC(C)(OC)C(O)C(C)O3)C(C)C(=O)OC(CC)C(C)(O)C(O)C(C)C(=O)C(C)CC2(C)O)C1O (stereo unspecified) [ME36] | > 10000
2 | CC[C@H](C)[C@H](NC(=O)[C@@H]1CCCN1C(=O)[C@@H](NC(=O)[C@@H](N)Cc1ccccc1)C(C)C)C(=O)N[C@@H](Cc1ccccc1)C(=O)N[C@H](C(=O)N[C@@H](Cc1ccc(O)cc1)C(=O)NCC(=O)N[C@@H](CCC(=O)O)C(=O)N[C@@H](CC(C)C)C(=O)N[C@@H](CCC(N)=O)C(=O)N[C@@H](CCCNC(=N)N)C(=O)N[C@@H](CCSC)C(=O)N[C@@H](CCC(N)=O)C(=O)N[C@@H](CCC(=O)O)C(=O)N[C@@H](CCCCN)C(=O)N[C@@H](CCC(=O)O)C(=O)N[C@@H](CCCNC(=N)N)C(=O)N[C@@H](CC(N)=O)C(=O)N[C@@H](CCCCN)C(=O)NCC(=O)N[C@@H](CCC(N)=O)C(=O)O)[C@@H](C)O [CAS_52906-92-0] | 2.82
3 | CC[C@H]1OC(=O)[C@H](C)[C@@H](O[C@H]2C[C@@](C)(OC)[C@@H](O)[C@H](C)O2)[C@H](C)[C@@H](O[C@@H]2O[C@H](C)C[C@H](N(C)C)[C@H]2O)[C@](C)(O)C[C@@H](C)C(=O)[C@H](C)[C@@H](O)[C@]1(C)O [CAS_114-07-8] | 3090
4 | CC[C@H]1OC(=O)[C@H](C)[C@@H](O[C@H]2C[C@@](C)(OC)[C@@H](O)[C@H](C)O2)[C@H](C)[C@@H](O[C@@H]2O[C@H](C)C[C@H](N(C)C)[C@H]2O)[C@@]2(C)CC(C)=C(O2)[C@H](C)[C@@H](O)[C@]1(C)O [Erythromycin-A enol ether] | 257
5 | CC[C@H]1OC(=O)[C@H](C)[C@@H](O[C@H]2C[C@@](C)(OC)[C@@H](O)[C@H](C)O2)[C@H](C)[C@@H](O[C@@H]2O[C@H](C)C[C@H](N(C)C)[C@H]2O)[C@]2(C)CC(C)=C(O2)[C@H](C)[C@@H](O)[C@@H]1C [EM-B enolether] | 324
6 | CC[C@H]1OC(=O)[C@H](C)[C@@H](O[C@H]2C[C@@](C)(OC)C[C@H](C)O2)[C@H](C)[C@@H](O[C@@H]2O[C@H](C)C[C@H](N(C)CC)[C@H]2O)[C@@]2(C)CC(C)=C(O2)[C@H](C)[C@@H](O)[C@H]1C [ABT-229] | 58.9
